# From US9078900B2 (priority 2008, dated 2015)
# Settings: at the end of the third month after implantation
compound,measurement,value
"Cc1nc2n(c(=O)c1CCN1CCC(c3noc4cc(F)ccc34)CC1)CCCC2 [Risperidone, risperidone]",presence of risperidone in the dog plasma,still present at a high level
